Test results published in patent US6806265B2, “Non-nucleoside reverse transcriptase inhibitors” (priority 2002, dated 2004).
Where two headings read alike, the source gives them in different places.

What was measured:
[1] = target: T1, HIV-1 RT double mutant K103N/Y181C (Human immunodeficiency virus type 1 group M subtype B, UniProt P03366, K702N/Y780C); assay: biochemical
T1 construct: HIV-1 wild type reverse transcriptase as well as the clinically significant double mutant K103N/Y181C
Method: (§1) Utilizing the Reverse Transcriptase (RT) Assay described below, compounds were tested for their ability to inhibit the RNA-dependent DNA polymerase activity of HIV-1 RT. Certain specific compounds described in the Examples and in Tables 1-4, were so tested. The results of this testing appear in Table 5 as ranges of IC50 (nM) and EC50 (nM).
(§2) Reverse Transcriptase (RT) Assays

[2] = target: T2, HIV-1 wild type reverse transcriptase (Human immunodeficiency virus type 1 group M subtype B, UniProt P03366); assay: biochemical; details: read-out: IC50 WT RT
T2 construct: HIV-1 wild type reverse transcriptase
Method: as §1, §2

[3] = RT double mutant K103N/Y181C, read-out: IC50 K103N/Y181C

Row | Structure (SMILES) | IC50 [1, 3] [nM] | IC50 ([2]; wild type RT) [nM] | IC50 [1] [nM] | IC50 [2] [nM]
1 | CCN1c2ncc(CCOc3ccc(-c4ccnc(C)c4)cc3C)cc2C(=O)N(C)c2cccnc21 [Entry 1085] | < 50 | < 50 | – | –
2 | CCN1c2ncc(CCOc3ccc(-c4cc(C)ccn4)cc3C)cc2C(=O)N(C)c2cccnc21 [Entry 1065] | < 50 | < 50 | – | –
3 | CCN1c2ncc(CCOc3ccc(-c4ccc(N)nc4)cc3C)cc2C(=O)N(C)c2cccnc21 [Entry 1079] | < 50 | < 50 | – | –
4 | CCN1c2ncc(CCOc3ccc(-c4c[n+]([O-])ccc4C)cc3C)cc2C(=O)N(C)c2cccnc21 [Entry 1077, 11-Ethyl-5,11-dihydro-5-methyl-8-{2-[2-methyl-4-(4-methyl-1-oxido-3-pyridinyl)phenoxy]ethyl}-6H-dipyrido[3,2-b:2′,3′-e][1,4]diazepin-6-one] | – | < 50 | < 50 | –
5 | CCN1c2ncc(CCOc3ccc(-c4cnc(N)c(C)c4)cc3C)cc2C(=O)N(C)c2cccnc21 [Entry 1080] | < 50 | < 50 | – | –
6 | CCN1c2ncc(CCOc3ccc(NC(C)=O)cc3C)cc2C(=O)N(C)c2cccnc21 [Entry 4001] | – | < 50 | 50 to 100 | –
7 | CCN1c2ncc(CCOc3ccc(-c4ccc(CCC(=O)O)o4)cc3C)cc2C(=O)N(C)c2cccnc21 [Entry 1049] | > 100 | – | – | < 50
8 | CCN1c2ncc(CCOc3ccc(-c4cc[n+]([O-])c(C)c4)cc3C)cc2C(=O)N(C)c2cccnc21 [Entry 1086] | < 50 | < 50 | – | –
9 | CCN1c2ncc(CCOc3ccc(-c4ccc(CC(=O)O)cc4Cl)cc3C)cc2C(=O)N(C)c2cccnc21 [Entry 1025] | < 50 | < 50 | – | –
10 | CCN1c2ncc(CCOc3ccc(-c4cnccc4C)cc3C)cc2C(=O)N(C)c2cccnc21 [Entry 1076, 11-Ethyl-5,11-dihydro-5-methyl-8-{2-[2-methyl-4-(4-methyl-3-pyridinyl)phenoxy]ethyl}-6H-dipyrido[3,2-b:2′,3′-e][1,4]diazepin-6-one] | – | < 50 | < 50 | –
11 | CCN1c2ncc(CCOc3cccc(-c4ccccc4)c3)cc2C(=O)N(C)c2cccnc21 [Entry 2003] | – | < 50 | > 100 | –
12 | CCN1c2ncc(CCOc3ccc(-c4ccc(C(=O)O)c(C)c4)cc3C)cc2C(=O)N(C)c2cccnc21 [Entry 1017] | < 50 | < 50 | – | –
13 | CCN1c2ncc(CCOc3ccc(C(=O)NCc4cc[n+]([O-])cc4)cc3C)cc2C(=O)N(C)c2cccnc21 [Entry 3003] | – | < 50 | 50 to 100 | –
14 | CCN1c2ncc(CCOc3ccc(-c4cc[n+]([O-])cc4)cc3C)cc2C(=O)N(C)c2cccnc21 [Entry 1084] | < 50 | < 50 | – | –
15 | CCN1c2ncc(CCOc3ccc(-c4ccc(C)cc4)cc3C)cc2C(=O)N(C)c2cccnc21 [Entry 1105] | < 50 | < 50 | – | –
16 | CCN1c2ncc(CCOc3ccc(-c4cc(C(=O)O)on4)cc3)cc2C(=O)N(C)c2cccnc21 [Entry 1040] | > 100 | < 50 | – | –
17 | CCN1c2ncc(CCOc3ccc(-c4cc(Cl)c(C(=O)O)cc4F)cc3C)cc2C(=O)N(C)c2cccnc21 [Entry 1020] | < 50 | < 50 | – | –
18 | CCN1c2ncc(CCOc3ccc(-c4ccc(F)c(CC(=O)O)c4)cc3C)cc2C(=O)N(C)c2cccnc21 [Entry 1057] | < 50 | < 50 | – | –
19 | CCN1c2ncc(CCOc3ccc(NC(=O)c4ccc(Cl)nc4)cc3C)cc2C(=O)N(C)c2cccnc21 [Entry 3035] | – | < 50 | < 50 | –
20 | CCN1c2ncc(CCOc3ccc(-c4ccc(C(=O)O)c(F)c4)cc3C)cc2C(=O)N(C)c2cccnc21 [Entry 1018] | < 50 | < 50 | – | –
21 | CCN1c2ncc(CCOc3ccc(-c4cncnc4)cc3)cc2C(=O)N(C)c2cccnc21 [Entry 1062] | > 100 | < 50 | – | –
22 | CCN1c2ncc(CCOc3ccc(-c4ccc(CCC(=O)O)o4)cc3)cc2C(=O)N(C)c2cccnc21 [Entry 1048] | > 100 | – | – | < 50
